Data: US20250296914A1, “ANTIVIRAL COMPOUNDS AND COMPOSITIONS THEREFROM” (CONSEJO SUPERIOR DE INVESTIGACIONES CIENTÍFICAS, priority 2022, published 2025)

Assays:
[1] = tested on: SARS-CoV-2 stock strain NL/2020; assay: Protective effect against virus-induced cytopathic effect (crystal violet staining of Vero-E6 monolayer); format: cell-based; details: Severe acute respiratory syndrome coronavirus 2, Vero C1008, 72 h, Vero-E6, SARS-CoV-2 MOI 0.001, 72 h; for minimal effective concentration: 50 to 0.78 μM tested, read-out: PC MIN (lowest protective concentration); for EC50: lowest fully protecting concentration averaged with next lower dilution, read-out: ESTIMATED EC50
[2] = tested on: SARS-CoV-2 stock strain NL/2020; assay: Intracellular viral antigen (N protein) accumulation by immunofluorescence, Vero-E6; format: cell-based; details: Severe acute respiratory syndrome coronavirus 2, Vero C1008; Vero-E6, MOI 0.005, viral antigen staining, 24 h
[3] = tested on: SARS-CoV-2 stock strain NL/2020; assay: Intracellular viral antigen (N protein) accumulation by immunofluorescence, A549-ACE2; format: cell-based; details: Severe acute respiratory syndrome coronavirus 2; A549-ACE2, MOI 0.005, viral antigen staining, 48 h
[4] = tested on: SARS-CoV-2 stock strain NL/2020; assay: Intracellular viral antigen (N protein) accumulation by immunofluorescence, Calu3; format: cell-based; details: Severe acute respiratory syndrome coronavirus 2; Calu-3, MOI 0.005, viral antigen staining, 48 h
[5] = tested on: hCoV-229E-GFP virus; format: cell-based, Human coronavirus 229E
[6] = tested on: WNV-GFP virus; format: cell-based, West Nile Virus; details: Huh-7, MOI 0.01, 48 h, FIG. 2
[7] = tested on: VSV-GFP virus; format: cell-based, Vesicular Stomatitis Virus
[8] = in vitro; details: African green monkey
[9] = in vitro; details: human
[10] = in vitro; details: human; remark: listed apart in the source
[11] = tested on: SARS-CoV-2 stock strain NL/2020; assay: Intracellular viral RNA quantification by RT-qPCR in A549-ACE2 cells; format: cell-based; details: for LOG viral RNA reduction: A549-ACE2, MOI 0.005, 48 h, vs DMSO; for Prevention of SARS-CoV-2 propagation (in words): A549-ACE2, conclusion from Table 5

Compound: COC(=O)c1cc(-c2ccc(N3CCOCC3)cc2)ccc1NC(C#N)[C@H](Cc1c[nH]c2ccccc12)NC(=O)OC(C)(C)C (stereo partly drawn) [(Ia), methyl 4-(((2S)-2-((tert-butoxycarbonyl)amino)-1-cyano-3-(1H-indol-3-yl)propyl)-amino)-4′-morpholino-[1,1′-biphenyl]-3-carboxylate]
- minimal effective concentration [1]: 0.78 µM
- EC50 [1]: 0.58 µM
- EC50 [2]: 0.3 µM
- EC90 [2]: 0.5 µM
- EC50 [3]: 1 µM
- EC90 [3]: 1.8 µM
- EC50 [4]: 0.2 µM
- EC90 [4]: 2 µM
- Prevention of infection with 229E-GFP (GFP expression, in words) [5]: suitable for preventing efficiently the infection
- Prevention of infection by West Nile Virus (GFP expression, in words) [6]: not being suitable for preventing the infection
- Prevention of infection by Vesicular Stomatitis Virus (GFP expression, in words) [7]: not being suitable for preventing the infection
- CC50 at 48 h [8]: > 50 µM
- CC50 at 48 h [9]: > 50 µM
- CC50 at 48 h [10]: > 50 µM

Compound: COC(=O)c1cc(-c2ccnc(N3CCOCC3)c2)ccc1NC(C#N)[C@H](Cc1c[nH]c2ccccc12)NC(=O)OC(C)(C)C (stereo partly drawn) [(Ian), methyl 2-(((2S)-2-((tert-butoxycarbonyl)amino)-1-cyano-3-(1H-indol-3-yl)propyl)amino)-5-(2-morpholinopyridin-4-yl)benzoate]
- minimal effective concentration [1]: 1.85 µM
- EC50 [1]: 1.39 µM
- EC50 [3]: 1.1 µM
- EC90 [3]: 6 µM
- CC50 at 48 h [9]: > 50 µM

Compound: CC(C)(C)OC(=O)N[C@@H](Cc1c[nH]c2ccccc12)C(C#N)Nc1ccc(Br)cc1C(=O)c1ccccc1 (stereo partly drawn) [(Ic), (3S)-2-((4-Bromo-2-benzoylphenyl)amino)-4-(1H-indol-3-yl)-3-(tert-butoxycarbonylamino)butanenitrile]
- minimal effective concentration [1]: 0.78 µM
- EC50 [1]: 0.58 µM
- EC50 [2]: 0.2 µM
- EC90 [2]: 0.3 µM
- EC50 [3]: 1 µM
- EC90 [3]: 2.1 µM
- EC50 [4]: 1.2 µM
- EC90 [4]: 1.8 µM
- LOG viral RNA reduction ([11]; compound concentration 4 μM): 4.26 LOG
- Prevention of SARS-CoV-2 propagation (in words) [11]: effective in preventing propagation of SARS-CoV-2
- Prevention of infection with 229E-GFP (GFP expression, in words) [5]: suitable for preventing efficiently the infection
- Prevention of infection by West Nile Virus (GFP expression, in words) [6]: not being suitable for preventing the infection
- Prevention of infection by Vesicular Stomatitis Virus (GFP expression, in words) [7]: not being suitable for preventing the infection
- CC50 at 48 h [8]: > 50 µM

Compound: COC(=O)c1cc(-c2ccc3c(c2)OCCO3)ccc1NC(C#N)[C@H](Cc1c[nH]c2ccccc12)NC(=O)OC(C)(C)C (stereo partly drawn) [(If), methyl 2-(((2S)-2-((tert-butoxycarbonyl)amino)-1-cyano-3-(1H-indol-3-yl)propyl)amino)-5-(2,3-dihydrobenzo[b][1,4]dioxin-6-yl)benzoate]
- minimal effective concentration [1]: 0.78 µM
- EC50 [1]: 0.58 µM
- EC50 [2]: 1 µM
- EC90 [2]: 1.8 µM
- EC50 [3]: 1 µM
- EC90 [3]: 1.8 µM
- EC50 [4]: 2 µM
- EC90 [4]: 4 µM
- LOG viral RNA reduction ([11]; compound concentration 4 μM): 5.14 LOG
- Prevention of SARS-CoV-2 propagation (in words) [11]: effective in preventing propagation of SARS-CoV-2
- CC50 at 48 h [8]: > 50 µM
- CC50 at 48 h [9]: > 50 µM
- CC50 at 48 h [10]: 50 µM

Compound: COC(=O)c1cc(-c2cccc(N3CCOCC3)c2)ccc1NC(C#N)[C@H](Cc1c[nH]c2ccccc12)NC(=O)OC(C)(C)C (stereo partly drawn) [(Ig), methyl 4-(((2S)-2-((tert-butoxycarbonyl)amino)-1-cyano-3-(1H-indol-3-yl)propyl)amino)-3′-morpholino-[1,1′-biphenyl]-3-carboxylate]
- minimal effective concentration [1]: 0.78 µM
- EC50 [1]: 0.58 µM
- EC50 [2]: 1.3 µM
- EC90 [2]: 2 µM
- EC50 [3]: 1.8 µM
- EC90 [3]: 8 µM
- EC50 [4]: 1.8 µM
- EC90 [4]: 8 µM
- CC50 at 48 h [8]: > 50 µM
- CC50 at 48 h [9]: > 50 µM
- CC50 at 48 h [10]: > 50 µM

Compound: COC(=O)c1cc(-c2ccc(N3CCCC3)nc2)ccc1NC(C#N)[C@H](Cc1c[nH]c2ccccc12)NC(=O)OC(C)(C)C (stereo partly drawn) [(Iq), methyl 2-(((2S)-2-((tert-butoxycarbonyl)amino)-1-cyano-3-(1H-indol-3-yl)propyl)amino)-5-(6-(pyrrolidin-1-yl)pyridin-3-yl)benzoate]
- minimal effective concentration [1]: 1.56 µM
- EC50 [1]: 1.17 µM
- EC50 [2]: 0.2 µM
- EC90 [2]: 0.9 µM
- EC50 [3]: 1.5 µM
- EC90 [3]: 5 µM
- EC50 [4]: 0.3 µM
- EC90 [4]: 2.5 µM
- Prevention of infection with 229E-GFP (GFP expression, in words) [5]: suitable for preventing efficiently the infection
- Prevention of infection by West Nile Virus (GFP expression, in words) [6]: not being suitable for preventing the infection
- Prevention of infection by Vesicular Stomatitis Virus (GFP expression, in words) [7]: not being suitable for preventing the infection
- CC50 at 48 h [8]: > 50 µM
- CC50 at 48 h [9]: > 50 µM
- CC50 at 48 h [10]: > 50 µM

Compound: COC(=O)c1cc(-c2ccc(N3CCOCC3)nc2)ccc1NC(C#N)[C@H](Cc1c[nH]c2ccccc12)NC(=O)OC(C)(C)C (stereo partly drawn) [(Is), methyl 2-(((2S)-2-((tert-butoxycarbonyl)amino)-1-cyano-3-(1H-indol-3-yl)propyl)amino)-5-(6-morpholinopyridin-3-yl)benzoate]
- minimal effective concentration [1]: 1.56 µM
- EC50 [1]: 1.17 µM
- EC50 [2]: 0.4 µM
- EC90 [2]: 1.8 µM
- EC50 [3]: 2 µM
- EC90 [3]: 8 µM
- EC50 [4]: 1.3 µM
- EC90 [4]: 8 µM
- CC50 at 48 h [8]: > 50 µM
- CC50 at 48 h [9]: > 50 µM
- CC50 at 48 h [10]: > 50 µM

Compound: CCC(CC)COC(=O)[C@H](C)N[P@](=O)(OC[C@H]1O[C@@](C#N)(c2ccc3c(N)ncnn23)[C@H](O)[C@@H]1O)Oc1ccccc1 [Remdesivir, remdesivir, reference compound]
- LOG viral RNA reduction ([11]; compound concentration 5 μM): 6.67 LOG
